# Laboratory results taken from the supplement of paper PMC10307832.
# Key:
# Test in all cases: relative viability (nuclei count vs DMSO), 5 days (fraction); higher = more cells survive
# IDH-C35 + Crizotinib = compound: Cc1ccccc1C(C(=O)NC1CCCCC1)N(C(=O)Cn1ccnc1C)c1cccc(F)c1 [IDH-C35] + C[C@@H](Oc1cc(-c2cnn(C3CCNCC3)c2)cnc1N)c1c(Cl)ccc(F)c1Cl [Crizotinib] (partner 1 µM)
# Outline: (§1)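 Relative viability was taken as the ratio of nuclei in treated wells to nuclei in vehicle wells. Lung cancer cell lines in 1536-well plates received compounds by pin tool one day after seeding, either one drug alone or a fixed anchor-drug dose plus five library-drug doses (not always all listed) in √10 steps. Nuclei were counted on 4× images after 5 days of treatment, and values are medians of duplicate plates.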
# IDH-C35 + Decitabine = compound: Cc1ccccc1C(C(=O)NC1CCCCC1)N(C(=O)Cn1ccnc1C)c1cccc(F)c1 [IDH-C35] + Nc1ncn([C@H]2C[C@H](O)[C@@H](CO)O2)c(=O)n1 [Decitabine] (partner 2 µM)
# Outline: as §1
# [1] = compound: CC1=C(C(=NN1)C)CC2=C(C3=C(S2)N(C(=O)N(C3=O)C)CC(C)C)C(=O)N4C[C@@H](CO4)O + CC(=O)c1c(C)c2cnc(Nc3ccc(N4CCNCC4)cn3)nc2n(C2CCCC2)c1=O [Palbociclib] (partner 0.5 µM)
# Outline: as §1
# [2] = compound: CC1=C(C(=NN1)C)CC2=C(C3=C(S2)N(C(=O)N(C3=O)C)CC(C)C)C(=O)N4C[C@@H](CO4)O + NC(=O)Nc1cc(-c2cccc(F)c2)sc1C(=O)N[C@H]1CCCNC1 [AZD7762] (partner 0.2 µM)
# Outline: as §1
cell line,measurement,setting,value
LCLC-103H,relative viability,IDH-C35 + Crizotinib; first compound 0.08 µM,1.01
same,relative viability,IDH-C35 + Crizotinib; first compound 0.253 µM,1.07
same,relative viability,IDH-C35 + Crizotinib; first compound 0.8 µM,1
same,relative viability,IDH-C35 + Crizotinib; first compound 2.53 µM,1.07
same,relative viability,IDH-C35 + Crizotinib; first compound 8 µM,0.987
same,relative viability,IDH-C35 + Decitabine; first compound 0.08 µM,0.81
same,relative viability,IDH-C35 + Decitabine; first compound 0.253 µM,0.676
same,relative viability,IDH-C35 + Decitabine; first compound 0.8 µM,0.726
same,relative viability,IDH-C35 + Decitabine; first compound 2.53 µM,0.744
same,relative viability,IDH-C35 + Decitabine; first compound 8 µM,0.834
same,relative viability,[1]; first compound 0.0025 µM,0.426
same,relative viability,[1]; first compound 0.007906 µM,0.471
same,relative viability,[1]; first compound 0.025 µM,0.508
same,relative viability,[1]; first compound 0.07906 µM,0.478
same,relative viability,[1]; first compound 0.25 µM,0.443
same,relative viability,[2]; first compound 0.0025 µM,0.793
same,relative viability,[2]; first compound 0.007906 µM,0.914
same,relative viability,[2]; first compound 0.025 µM,0.768
same,relative viability,[2]; first compound 0.07906 µM,0.807
same,relative viability,[2]; first compound 0.25 µM,0.749
LCLC-97TM1,relative viability,IDH-C35 + Crizotinib; first compound 0.08 µM,0.366
same,relative viability,IDH-C35 + Crizotinib; first compound 0.253 µM,0.281
same,relative viability,IDH-C35 + Crizotinib; first compound 0.8 µM,0.291
same,relative viability,IDH-C35 + Crizotinib; first compound 8 µM,0.293
same,relative viability,IDH-C35 + Decitabine; first compound 0.08 µM,0.219
same,relative viability,IDH-C35 + Decitabine; first compound 0.253 µM,0.247
same,relative viability,IDH-C35 + Decitabine; first compound 0.8 µM,0.255
same,relative viability,IDH-C35 + Decitabine; first compound 8 µM,0.238
same,relative viability,[1]; first compound 0.0025 µM,0.262
same,relative viability,[1]; first compound 0.007906 µM,0.266
same,relative viability,[1]; first compound 0.025 µM,0.279
same,relative viability,[1]; first compound 0.07906 µM,0.196
same,relative viability,[1]; first compound 0.25 µM,0.247
same,relative viability,[2]; first compound 0.0025 µM,0.194
same,relative viability,[2]; first compound 0.007906 µM,0.326
same,relative viability,[2]; first compound 0.025 µM,0.331
same,relative viability,[2]; first compound 0.07906 µM,0.28
same,relative viability,[2]; first compound 0.25 µM,0.369
NCI-H727,relative viability,IDH-C35 + Crizotinib; first compound 0.08 µM,0.853
same,relative viability,IDH-C35 + Crizotinib; first compound 0.253 µM,0.734
same,relative viability,IDH-C35 + Crizotinib; first compound 0.8 µM,0.826
same,relative viability,IDH-C35 + Crizotinib; first compound 2.53 µM,0.916
same,relative viability,IDH-C35 + Crizotinib; first compound 8 µM,0.954
same,relative viability,IDH-C35 + Decitabine; first compound 0.08 µM,0.797
same,relative viability,IDH-C35 + Decitabine; first compound 0.253 µM,0.979
same,relative viability,IDH-C35 + Decitabine; first compound 0.8 µM,0.708
same,relative viability,IDH-C35 + Decitabine; first compound 2.53 µM,0.845
same,relative viability,IDH-C35 + Decitabine; first compound 8 µM,0.939
same,relative viability,[1]; first compound 0.0025 µM,0.697
same,relative viability,[1]; first compound 0.007906 µM,0.655
same,relative viability,[1]; first compound 0.025 µM,0.676
same,relative viability,[1]; first compound 0.07906 µM,0.682
same,relative viability,[1]; first compound 0.25 µM,0.679
same,relative viability,[2]; first compound 0.0025 µM,0.6
same,relative viability,[2]; first compound 0.007906 µM,0.842
same,relative viability,[2]; first compound 0.025 µM,0.575
same,relative viability,[2]; first compound 0.07906 µM,0.623
same,relative viability,[2]; first compound 0.25 µM,0.652
NCI-H1355,relative viability,IDH-C35 + Crizotinib; first compound 0.08 µM,1.08
same,relative viability,IDH-C35 + Crizotinib; first compound 0.253 µM,1.03
same,relative viability,IDH-C35 + Crizotinib; first compound 0.8 µM,1.03
same,relative viability,IDH-C35 + Crizotinib; first compound 2.53 µM,1.01
same,relative viability,IDH-C35 + Crizotinib; first compound 8 µM,1.07
same,relative viability,IDH-C35 + Decitabine; first compound 0.08 µM,0.347
same,relative viability,IDH-C35 + Decitabine; first compound 0.253 µM,0.379
same,relative viability,IDH-C35 + Decitabine; first compound 0.8 µM,0.353
same,relative viability,IDH-C35 + Decitabine; first compound 2.53 µM,0.419
same,relative viability,IDH-C35 + Decitabine; first compound 8 µM,0.344
same,relative viability,[1]; first compound 0.0025 µM,0.413
same,relative viability,[1]; first compound 0.007906 µM,0.459
same,relative viability,[1]; first compound 0.025 µM,0.408
same,relative viability,[1]; first compound 0.07906 µM,0.401
same,relative viability,[1]; first compound 0.25 µM,0.414
same,relative viability,[2]; first compound 0.0025 µM,0.688
same,relative viability,[2]; first compound 0.007906 µM,0.842
same,relative viability,[2]; first compound 0.025 µM,0.713
same,relative viability,[2]; first compound 0.07906 µM,0.65
same,relative viability,[2]; first compound 0.25 µM,0.816
HOP-62,relative viability,IDH-C35 + Crizotinib; first compound 0.08 µM,0.839
same,relative viability,IDH-C35 + Crizotinib; first compound 0.253 µM,1.04
same,relative viability,IDH-C35 + Crizotinib; first compound 0.8 µM,0.832
same,relative viability,IDH-C35 + Crizotinib; first compound 8 µM,0.925
same,relative viability,IDH-C35 + Decitabine; first compound 0.08 µM,0.175
same,relative viability,IDH-C35 + Decitabine; first compound 0.253 µM,0.237
same,relative viability,IDH-C35 + Decitabine; first compound 0.8 µM,0.229
same,relative viability,IDH-C35 + Decitabine; first compound 2.53 µM,0.206
same,relative viability,IDH-C35 + Decitabine; first compound 8 µM,0.206
same,relative viability,[1]; first compound 0.0025 µM,0.409
same,relative viability,[1]; first compound 0.007906 µM,0.418
same,relative viability,[1]; first compound 0.025 µM,0.461
same,relative viability,[1]; first compound 0.07906 µM,0.404
same,relative viability,[1]; first compound 0.25 µM,0.574
same,relative viability,[2]; first compound 0.0025 µM,0.668
same,relative viability,[2]; first compound 0.007906 µM,0.589
same,relative viability,[2]; first compound 0.025 µM,0.646
same,relative viability,[2]; first compound 0.07906 µM,0.615
same,relative viability,[2]; first compound 0.25 µM,0.851
NCI-H2085,relative viability,IDH-C35 + Crizotinib; first compound 0.08 µM,0.808
same,relative viability,IDH-C35 + Crizotinib; first compound 0.253 µM,0.749
same,relative viability,IDH-C35 + Crizotinib; first compound 0.8 µM,0.877
same,relative viability,IDH-C35 + Crizotinib; first compound 2.53 µM,0.954
same,relative viability,IDH-C35 + Crizotinib; first compound 8 µM,0.781
same,relative viability,IDH-C35 + Decitabine; first compound 0.08 µM,0.543
same,relative viability,IDH-C35 + Decitabine; first compound 0.253 µM,0.549
same,relative viability,IDH-C35 + Decitabine; first compound 0.8 µM,0.554
same,relative viability,IDH-C35 + Decitabine; first compound 2.53 µM,0.569
same,relative viability,IDH-C35 + Decitabine; first compound 8 µM,0.465
same,relative viability,[1]; first compound 0.0025 µM,0.495
same,relative viability,[1]; first compound 0.007906 µM,0.439
same,relative viability,[1]; first compound 0.025 µM,0.431
same,relative viability,[1]; first compound 0.07906 µM,0.451
same,relative viability,[1]; first compound 0.25 µM,0.492
same,relative viability,[2]; first compound 0.0025 µM,1.01
same,relative viability,[2]; first compound 0.007906 µM,1.02
same,relative viability,[2]; first compound 0.025 µM,0.879
same,relative viability,[2]; first compound 0.07906 µM,0.986
same,relative viability,[2]; first compound 0.25 µM,0.448
